These results are taken from patent US10173999B2, “Cyclic amine derivative and pharmaceutical use thereof” (Toray Industries, Inc., priority 2015, dated 2019).

The structures appear in SMILES notation. Structures can show the parent of a compound that is named as a salt.

The nature of data set [1]: Stability test in monkey liver microsomes. The format is in vitro ADME. To be noted: pH 7.4; monkey liver microsomes 0.5 mg/mL, test compound 2 μmol/L, 37° C., 0-30 min; read-out: Hepatic intrinsic clearance, Monkey. How it is done:
(§1) Experiment was performed using the compound of Example 11, Comparative Example 1 or Comparative Example 6 as a test compound and human liver microsomes (from Xenotech), monkey liver microsomes (from Xenotech), dog liver microsomes (from Xenotech) or mouse liver microsomes (from Xenotech) as the liver microsomes.
(§2) The reagents to be used in the stability test in liver microsomes were prepared as follows. A D-glucose 6-phosphate disodium salt (hereinafter referred to as G6P) was dissolved with distilled water to prepare an aqueous solution of G6P (100 mmol/L). Glucose 6-phosphate dehydrogenase (1000 units) from Yeast (hereinafter referred to as G6PDH) was dissolved with distilled water (5 mL) to prepare an aqueous solution of G6PDH (200 units/mL). MgCl2 was dissolved with distilled water to prepare an aqueous solution of MgCl2 (100 mmol/L). […]
(§3) With respect to the chromatogram of each well obtained by LC/MS analysis or LC/MS/MS analysis, the test compound residual ratio (%) at each reaction time t (min) was calculated based on the peak area at the reaction time of 0 minute as 100%. […]

Data set [2] in a line: Stability test in mouse liver microsomes. The data set is classed as in vitro ADME. The settings on record: pH 7.4; mouse liver microsomes 0.5 mg/mL, test compound 2 μmol/L, 37° C., 0-30 min; read-out: Hepatic intrinsic clearance, Mouse. The protocol: as §1, §2, §3
The test system of data set [3] is mouse partial sciatic nerve ligation model (neuropathic pain). Nature of the data set: Mouse partial sciatic nerve ligation model (Seltzer model), von Frey test. The data set is classed as in vivo. The settings on record: Comparative Example 7: oral, 7 days after ligation, 1-3 h after dosing; 0.01-1 mg/kg (Comp Ex 1), 10 mg/kg (Comp Ex 3-6, pregabalin); vs ligation+distilled water; t-test corrected by Dunnett.

With `CN(C)C1CCN(C(=O)CCc2nccn2C)CC1` [Comparative Example 1, 1-(4-(dimethylamino)piperidin-1-yl)-3-(1-methyl-1H-imidazol-2-yl)propan-1-one hydrochloride], the microsomal CLint at 2 μmol/L stood at 2 µL/min/mg in data set [1] and 4 µL/min/mg in data set [2]. In addition, in data set [3], the “analgesic action in von Frey test (total score)” value is “statistically significant analgesic action”.

As to `CC(C)n1ccnc1CCC(=O)N1CCC(N(C)C)CC1` [Comparative Example 6, 1-(4-(dimethylamino)piperidin-1-yl)-3-(1-isopropyl-1H-imidazol-2-yl)propan-1-one hydrochloride], in data set [1], the microsomal CLint at 2 μmol/L was 6 µL/min/mg. Further, in data set [3], the “analgesic action in von Frey test (total score)” value is listed as “statistically significant analgesic action”.

As for `CN(C)C1CCN(C(=O)C[C@H](O)c2nccn2C)CC1` [Example 11, (S)-1-(4-(dimethylamino)piperidin-1-yl)-3-hydroxy-3-(1-methyl-1H-imidazol-2-yl)propan-1-one], the microsomal CLint at 2 μmol/L in data set [2] was determined as 3 µL/min/mg.
